Test results: publication PMC8878748, “Broad-Spectrum Antiviral Activity of the Amphibian Antimicrobial Peptide Temporin L and Its Analogs” (International Journal of Molecular Sciences, 2022)
pIC50: −log10 of the molar value. Where a SMILES comes first, the peptide text is derived from it. [ ]: non-standard residue; d: D form. The star is where a group is joined. X1 = CC(C)CCC[C@@H](C)[C@H]1CC[C@H]2[C@@H]3CC=C4C[C@@H](OC(=O)CCOCCOCCOCCOCCNC(=O)C*)CC[C@]4(C)[C@H]3CC[C@]12C; Pentadecanoyl = CCCCCCCCCCCCCCC(=O)*; Palmitoyl = CCCCCCCCCCCCCCCC(=O)*; Hyp = O=C(O)[C@@H]1C[C@@H](O)CN1; Tridecanoyl = CCCCCCCCCCCCC(=O)*; Aic = NC1(C(=O)O)Cc2ccccc2C1; dNle = CCCC[C@@H](N)C(=O)O; Nle = CCCC[C@H](N)C(=O)O

What was measured:
[1] = Table 2; cited from earlier work
MeV = conditions: 2 h
[2] = MTT cytotoxicity assay on Vero cells; format: cell-based; conditions: MTT; for CC50: calculated after 2 h of peptide treatment; for viability: 2 h, concentrations below 25 μM, read-out: viable cells
HPIV-3 = conditions: 2 h
[3] = system: influenza virus (subtype H1N1); conditions: influenza virus (subtype, 2 h)
HCoV-OC43 = conditions: 2 h
HCoV-229E = conditions: 2 h

Structure (SMILES)	%Helix in DPC [1] [%]	pIC50 (MeV)	IC90 (MeV) [µM]	CC50 [2] [µM]	pIC50 (HPIV-3)	IC90 (HPIV-3) [µM]	pIC50 [3]	IC90 [3] [µM]	viability [2] [%]	pIC50 (HCoV-OC43)	IC90 (HCoV-OC43) [µM]	pIC50 (HCoV-229E)	IC90 (HCoV-229E) [µM]
CC[C@H](C)[C@H](NC(=O)[C@H](CCCNC(=N)N)NC(=O)[C@@H]1C[C@@H](O)CN1C(=O)[C@@H](CC(C)C)NC(=O)[C@H](Cc1ccccc1)NC(=O)[C@H](CCCCN)NC(=O)[C@H](CO)NC(=O)[C@H](Cc1ccccc1)NC(=O)[C@H](Cc1c[nH]c2ccccc12)NC(=O)[C@@H]1CCCN1C(=O)[C@@H](NC(=O)[C@@H](N)Cc1ccccc1)C(C)C)C(=O)N[C@@H](CC(C)C)C(N)=O [TL4, H-Phe-Val-Pro-Trp-Phe-Ser-Lys-Phe-DLeu-Hyp-Arg-Ile-Leu-NH2] (H-FVPWFSKF[dL][Hyp]RIL-NH2)	18	< 4.30	> 50	60.2	< 4.30	> 50	4.79	31.7	–	–	–	–	–
CCCCCCCCCCCCC(=O)N[C@@H](Cc1ccccc1)C(=O)N[C@H](C(=O)N1CCC[C@H]1C(=O)N[C@@H](Cc1c[nH]c2ccccc12)C(=O)N[C@@H](Cc1ccccc1)C(=O)N[C@@H](CO)C(=O)N[C@@H](CCCCN)C(=O)N[C@@H](Cc1ccccc1)C(=O)N[C@H](CC(C)C)C(=O)N[C@@H](CCCC)C(=O)N[C@@H](CCCNC(=N)N)C(=O)N[C@H](C(=O)N[C@@H](CC(C)C)C(N)=O)[C@@H](C)CC)C(C)C [TL6.6, H-Tridecanoic acid-Phe-Val-Pro-Trp-Phe-Ser-Lys-Phe-DLeu-Nle-Arg-Ile-Leu-NH2] (Tridecanoyl-FVPWFSKF[dL][Nle]RIL-NH2)	–	4.48	> 50	> 100	–	–	5.47	6.66	–	–	–	–	–
CCCC[C@@H](NC(=O)[C@@H](CC(C)C)NC(=O)[C@H](Cc1ccccc1)NC(=O)[C@H](CCCCN)NC(=O)[C@H](CO)NC(=O)[C@H](Cc1ccccc1)NC(=O)[C@H](Cc1c[nH]c2ccccc12)NC(=O)[C@@H]1CCCN1C(=O)[C@@H](NC(=O)[C@@H](N)Cc1ccccc1)C(C)C)C(=O)N[C@@H](CCCNC(=N)N)C(=O)N[C@H](C(=O)N[C@@H](CC(C)C)C(N)=O)[C@@H](C)CC [TL7, H-Phe-Val-Pro-Trp-Phe-Ser-Lys-Phe-DLeu-DNle-Arg-Ile-Leu-NH2] (H-FVPWFSKF[dL][dNle]RIL-NH2)	30	< 4.30	> 50	32.2	< 4.30	> 50	5.35	13.5	–	–	–	–	–
CCCC[C@H](NC(=O)[C@@H](CC(C)C)NC(=O)[C@H](Cc1ccccc1)NC(=O)[C@H](CCCCN)NC(=O)[C@H](CO)NC(=O)[C@H](Cc1ccccc1)NC(=O)[C@H](Cc1c[nH]c2ccccc12)NC(=O)[C@@H]1CCCN1C(=O)[C@@H](NC(=O)[C@@H](N)Cc1ccccc1)C(C)C)C(=O)N[C@@H](CCCNC(=N)N)C(=O)N[C@H](C(=O)N[C@@H](CC(C)C)C(=O)N[C@@H](CSCC(=O)NCCOCCOCCOCCOCCC(=O)O[C@H]1CC[C@@]2(C)C(=CC[C@H]3[C@@H]4CC[C@H]([C@H](C)CCCC(C)C)[C@@]4(C)CC[C@@H]32)C1)C(N)=O)[C@@H](C)CC [TL6.1, H-Phe-Val-Pro-Trp-Phe-Ser-Lys-Phe-DLeu-Nle-Arg-Ile-Leu-Cys-[PEG4-Cholesterol]-NH2] (H-FVPWFSKF[dL][Nle]RILC(X1)-NH2)	–	4.41	> 50	> 100	–	–	5.26	10	–	–	–	–	–
CC[C@H](C)[C@H](NC(=O)[C@H](CCCNC(=N)N)NC(=O)[C@@H](CCCCN)NC(=O)[C@@H](CC(C)C)NC(=O)[C@H](Cc1ccccc1)NC(=O)[C@H](CCCCN)NC(=O)[C@H](CO)NC(=O)[C@H](Cc1ccccc1)NC(=O)[C@H](Cc1c[nH]c2ccccc12)NC(=O)[C@@H]1CCCN1C(=O)[C@@H](NC(=O)[C@@H](N)Cc1ccccc1)C(C)C)C(=O)N[C@@H](CC(C)C)C(N)=O [TL9, H-Phe-Val-Pro-Trp-Phe-Ser-Lys-Phe-DLeu-DLys-Arg-Ile-Leu-NH2] (H-FVPWFSKF[dL][dK]RIL-NH2)	30	4.35	> 50	45.9	–	–	5.46	11.2	> 65	–	–	–	–
CC[C@H](C)[C@H](NC(=O)[C@H](CCCNC(=N)N)NC(=O)C1(NC(=O)[C@@H](CC(C)C)NC(=O)[C@H](Cc2ccccc2)NC(=O)[C@H](CCCCN)NC(=O)[C@H](CO)NC(=O)[C@H](Cc2ccccc2)NC(=O)[C@H](Cc2c[nH]c3ccccc23)NC(=O)[C@@H]2CCCN2C(=O)[C@@H](NC(=O)[C@@H](N)Cc2ccccc2)C(C)C)Cc2ccccc2C1)C(=O)N[C@@H](CC(C)C)C(N)=O [TL12, H-Phe-Val-Pro-Trp-Phe-Ser-Lys-Phe-DLeu-Aic-Arg-Ile-Leu-NH2] (H-FVPWFSKF[dL][Aic]RIL-NH2)	18	4.52	> 50	8.28	4.47	> 50	6.15	13.9	–	6.21	13.2	6.13	20.9
CCCCCCCCCCCCCCC(=O)N[C@@H](Cc1ccccc1)C(=O)N[C@H](C(=O)N1CCC[C@H]1C(=O)N[C@@H](Cc1c[nH]c2ccccc12)C(=O)N[C@@H](Cc1ccccc1)C(=O)N[C@@H](CO)C(=O)N[C@@H](CCCCN)C(=O)N[C@@H](Cc1ccccc1)C(=O)N[C@H](CC(C)C)C(=O)N[C@@H](CCCC)C(=O)N[C@@H](CCCNC(=N)N)C(=O)N[C@H](C(=O)N[C@@H](CC(C)C)C(N)=O)[C@@H](C)CC)C(C)C [TL6.7, H-Pentadecanoic acid-Phe-Val-Pro-Trp-Phe-Ser-Lys-Phe-DLeu-Nle-Arg-Ile-Leu-NH2] (Pentadecanoyl-FVPWFSKF[dL][Nle]RIL-NH2)	–	4.42	> 50	> 100	–	–	5.46	8.1	–	–	–	–	–
CC[C@H](C)[C@H](NC(=O)[C@H](CCCNC(=N)N)NC(=O)[C@H](Cc1c[nH]c2ccccc12)NC(=O)[C@@H](CC(C)C)NC(=O)[C@H](Cc1ccccc1)NC(=O)[C@H](CCCCN)NC(=O)[C@H](CO)NC(=O)[C@H](Cc1ccccc1)NC(=O)[C@H](Cc1c[nH]c2ccccc12)NC(=O)[C@@H]1CCCN1C(=O)[C@@H](NC(=O)[C@@H](N)Cc1ccccc1)C(C)C)C(=O)N[C@@H](CC(C)C)C(N)=O [TL10, H-Phe-Val-Pro-Trp-Phe-Ser-Lys-Phe-DLeu-Trp-Arg-Ile-Leu-NH2] (H-FVPWFSKF[dL]WRIL-NH2)	50	4.37	> 50	35.5	–	–	5.42	12.1	> 65	–	–	–	–
CC[C@H](C)[C@H](NC(=O)[C@H](CCCNC(=N)N)NC(=O)[C@@H]1CCCN1C(=O)[C@@H](CC(C)C)NC(=O)[C@H](Cc1ccccc1)NC(=O)[C@H](CCCCN)NC(=O)[C@H](CO)NC(=O)[C@H](Cc1ccccc1)NC(=O)[C@H](Cc1c[nH]c2ccccc12)NC(=O)[C@@H]1CCCN1C(=O)[C@@H](NC(=O)[C@@H](N)Cc1ccccc1)C(C)C)C(=O)N[C@@H](CC(C)C)C(N)=O [TL2, H-Phe-Val-Pro-Trp-Phe-Ser-Lys-Phe-DLeu-Pro-Arg-Ile-Leu-NH2] (H-FVPWFSKF[dL]PRIL-NH2)	15	< 4.30	> 50	56.5	–	–	4.92	21.3	–	–	–	–	–
CC[C@H](C)[C@H](NC(=O)[C@H](CCCNC(=N)N)NC(=O)[C@H](CCCCN)NC(=O)[C@@H](CC(C)C)NC(=O)[C@H](Cc1ccccc1)NC(=O)[C@H](CCCCN)NC(=O)[C@H](CO)NC(=O)[C@H](Cc1ccccc1)NC(=O)[C@H](Cc1c[nH]c2ccccc12)NC(=O)[C@@H]1CCCN1C(=O)[C@@H](NC(=O)[C@@H](N)Cc1ccccc1)C(C)C)C(=O)N[C@@H](CC(C)C)C(N)=O [TL8, H-Phe-Val-Pro-Trp-Phe-Ser-Lys-Phe-DLeu-Lys-Arg-Ile-Leu-NH2] (H-FVPWFSKF[dL]KRIL-NH2)	61	4.43	> 50	22.3	–	–	5.47	9.78	–	–	–	–	–
CCCCCCCCCCCCCCCC(=O)N[C@@H](Cc1ccccc1)C(=O)N[C@H](C(=O)N1CCC[C@H]1C(=O)N[C@@H](Cc1c[nH]c2ccccc12)C(=O)N[C@@H](Cc1ccccc1)C(=O)N[C@@H](CO)C(=O)N[C@@H](CCCCN)C(=O)N[C@@H](Cc1ccccc1)C(=O)N[C@H](CC(C)C)C(=O)N[C@@H](CCCC)C(=O)N[C@@H](CCCNC(=N)N)C(=O)N[C@H](C(=O)N[C@@H](CC(C)C)C(N)=O)[C@@H](C)CC)C(C)C [TL6.8, H-Palmitic acid-Phe-Val-Pro-Trp-Phe-Ser-Lys-Phe-DLeu-Nle-Arg-Ile-Leu-NH2] (Palmitoyl-FVPWFSKF[dL][Nle]RIL-NH2)	–	4.40	> 50	> 100	–	–	5.32	7.11	–	–	–	–	–
CC[C@H](C)[C@H](NC(=O)[C@H](CCCNC(=N)N)NC(=O)[C@H]1CCCN1C(=O)[C@@H](CC(C)C)NC(=O)[C@H](Cc1ccccc1)NC(=O)[C@H](CCCCN)NC(=O)[C@H](CO)NC(=O)[C@H](Cc1ccccc1)NC(=O)[C@H](Cc1c[nH]c2ccccc12)NC(=O)[C@@H]1CCCN1C(=O)[C@@H](NC(=O)[C@@H](N)Cc1ccccc1)C(C)C)C(=O)N[C@@H](CC(C)C)C(N)=O [TL3, H-Phe-Val-Pro-Trp-Phe-Ser-Lys-Phe-DLeu-DPro-Arg-Ile-Leu-NH2] (H-FVPWFSKF[dL][dP]RIL-NH2)	8	< 4.30	> 50	> 100	–	–	< 4.30	> 50	–	–	–	–	–
CC[C@H](C)[C@H](NC(=O)[C@H](CCCNC(=N)N)NC(=O)[C@@H](Cc1c[nH]c2ccccc12)NC(=O)[C@@H](CC(C)C)NC(=O)[C@H](Cc1ccccc1)NC(=O)[C@H](CCCCN)NC(=O)[C@H](CO)NC(=O)[C@H](Cc1ccccc1)NC(=O)[C@H](Cc1c[nH]c2ccccc12)NC(=O)[C@@H]1CCCN1C(=O)[C@@H](NC(=O)[C@@H](N)Cc1ccccc1)C(C)C)C(=O)N[C@@H](CC(C)C)C(N)=O [TL11, H-Phe-Val-Pro-Trp-Phe-Ser-Lys-Phe-DLeu-DTrp-Arg-Ile-Leu-NH2] (H-FVPWFSKF[dL][dW]RIL-NH2)	40	4.36	> 50	24.1	–	–	5.52	9.77	–	–	–	–	–
